# From US20230357179A1, “RAF KINASE INHIBITORS AND METHODS OF USE THEREOF” (Deciphera Pharmaceuticals, LLC, priority 2021, published 2023)
# Target: T1, B-Raf kinase (Homo sapiens, UniProt P15056)
# T1 construct: GST (N); purchased Sigma
# Test: Biochemical assay for B-Raf.1 (coupled pyruvate kinase/lactate dehydrogenase)
# Conditions: read-out: BRAF.1 IC50
# Method in brief: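 Reaction rates over the 4–5 h window of a continuous 6 h, 30 °C read were converted to percent inhibition and fitted for IC50. B-Raf (0.13 nM) phosphorylated 30.1 nM MEK with 1 mM ATP; ADP coupled via PK/LDH to NADH loss at 340 nm, 1% DMSO final.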
# T1 sequence (P15056 416-766): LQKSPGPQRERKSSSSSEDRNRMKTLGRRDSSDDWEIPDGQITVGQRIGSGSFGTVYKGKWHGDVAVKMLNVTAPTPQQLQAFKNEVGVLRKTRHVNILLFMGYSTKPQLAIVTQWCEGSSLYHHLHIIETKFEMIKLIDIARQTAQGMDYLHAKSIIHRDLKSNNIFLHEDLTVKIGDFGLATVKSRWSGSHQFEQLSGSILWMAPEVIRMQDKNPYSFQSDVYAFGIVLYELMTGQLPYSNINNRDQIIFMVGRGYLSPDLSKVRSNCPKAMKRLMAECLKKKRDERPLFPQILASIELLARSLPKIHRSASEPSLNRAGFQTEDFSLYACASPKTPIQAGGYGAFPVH
row,IC50,SMILES
1,100 to 500 nM,COC(=O)Nc1cc(-c2nccc(-c3cc(NC(=O)NCCC4(C)CC4)cnc3C)n2)ccn1 [Example 135]
2,≤ 100 nM,Cc1ncc(NC(=O)NCCC(C)(C)F)cc1-c1ccnc(-c2ccnc(NC(=O)C3CC3)c2)n1 [Example 136]
3,100 to 500 nM,COC1(CCNC(=O)Nc2cnc(C)c(-c3ccnc(-c4ccnc(NC(=O)C5CC5)c4)n3)c2)CC1 [Example 137]
4,100 to 500 nM,COC(=O)Nc1cc(-c2cccc(-c3cc(NC(=O)NCCC4(OC)CC4)cnc3C)c2)ncn1 [Example 138]
5,≤ 100 nM,Cc1cc(F)c(NC(=O)NCCC(C)(C)F)cc1-c1cc(-c2ccnc(NC(=O)C3CC3)c2)cnn1 [Example 139]
6,100 to 500 nM,COC(=O)Nc1cc(-c2cnnc(-c3cc(NC(=O)NCCC(C)(C)OC)c(F)cc3C)c2)ccn1 [Example 140]
7,≤ 100 nM,COC(=O)Nc1cc(-c2cnnc(-c3cc(NC(=O)NCCC(C)(C)F)c(F)cc3C)c2)ccn1 [Example 141]
8,≤ 100 nM,COC(C)(C)CCNC(=O)Nc1cc(-c2cc(-c3ccnc(NC(=O)C4CC4)c3)cnn2)c(C)cc1F [Example 142]
9,500 to 1000 nM,COC(=O)Nc1cc(-c2nccc(-c3cc(NC(=O)NCCC4(OC)CC4)cnc3C)n2)ccn1 [Example 143]
10,≤ 100 nM,Cc1ncc(NC(=O)NC2CC(C)(C)C2)cc1-c1cc(OCCO)nc(-c2ccnc(NC(=O)C3CC3)c2)n1 [Example 144]
11,≤ 100 nM,COC(=O)Nc1cc(-c2cc(-c3cc(NC(=O)NCCC4(OC)CC4)c(F)cc3C)ccn2)ccn1 [Example 145]
12,≤ 100 nM,COC(=O)Nc1cc(-c2nccc(-c3cc(NC(=O)NCCC4(OC)CC4)c(F)cc3C)n2)ccn1 [Example 146]
13,≤ 100 nM,COC(=O)Nc1cc(-c2nccc(-c3cc(NC(=O)NCCC(C)(C)F)c(F)cc3C)n2)ccn1 [Example 147]
14,500 to 1000 nM,COC[C@H]1CCN(C(=O)Nc2cc(-c3cc(-c4ccnc(NC(=O)OC)c4)cnn3)c(C)cc2F)C1 [Example 148]
15,500 to 1000 nM,COC[C@@H]1CCN(C(=O)Nc2cc(-c3cc(-c4ccnc(NC(=O)OC)c4)cnn3)c(C)cc2F)C1 [Example 149]
16,≤ 100 nM,COC(=O)Nc1cc(-c2cnnc(-c3cc(NC(=O)N4CCC(CC(F)(F)F)C4)c(F)cc3C)c2)ccn1 (stereo not shown) [Example 150]

# Target: T2, B-Raf (V600E) kinase (Homo sapiens, UniProt P15056, V600E)
# T2 construct: B-Raf (V600E) residues 416-766 with a; GST (N); purchased SignalChem
# Test: Biochemical assay for B-Raf (V600E).1 (coupled pyruvate kinase/lactate dehydrogenase)
# Conditions: read-out: BRAF V600E.1 IC50
# Method in brief: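 IC50 came from four-parameter sigmoidal fits of percent inhibition, using reaction rates over 3-4 h. Continuous A340 reading (6 h, 30 °C) of a pyruvate kinase/lactate dehydrogenase-coupled reaction: B-Raf V600E 0.03 nM, MEK 30.1 nM, ATP 1 mM, Tris pH 7.5, 1% DMSO.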
# T2 sequence (P15056 416-766 V600E): as the sequence (P15056 416-766) above, with V185E counted along it
row,IC50,SMILES
1,≤ 100 nM,COC(=O)Nc1cc(-c2nccc(-c3cc(NC(=O)NCCC4(C)CC4)cnc3C)n2)ccn1 [Example 135]
2,≤ 100 nM,Cc1ncc(NC(=O)NCCC(C)(C)F)cc1-c1ccnc(-c2ccnc(NC(=O)C3CC3)c2)n1 [Example 136]
3,≤ 100 nM,COC1(CCNC(=O)Nc2cnc(C)c(-c3ccnc(-c4ccnc(NC(=O)C5CC5)c4)n3)c2)CC1 [Example 137]
4,≤ 100 nM,COC(=O)Nc1cc(-c2cccc(-c3cc(NC(=O)NCCC4(OC)CC4)cnc3C)c2)ncn1 [Example 138]
5,≤ 100 nM,Cc1cc(F)c(NC(=O)NCCC(C)(C)F)cc1-c1cc(-c2ccnc(NC(=O)C3CC3)c2)cnn1 [Example 139]
6,≤ 100 nM,COC(=O)Nc1cc(-c2cnnc(-c3cc(NC(=O)NCCC(C)(C)OC)c(F)cc3C)c2)ccn1 [Example 140]
7,≤ 100 nM,COC(=O)Nc1cc(-c2cnnc(-c3cc(NC(=O)NCCC(C)(C)F)c(F)cc3C)c2)ccn1 [Example 141]
8,≤ 100 nM,COC(C)(C)CCNC(=O)Nc1cc(-c2cc(-c3ccnc(NC(=O)C4CC4)c3)cnn2)c(C)cc1F [Example 142]
9,≤ 100 nM,COC(=O)Nc1cc(-c2nccc(-c3cc(NC(=O)NCCC4(OC)CC4)cnc3C)n2)ccn1 [Example 143]
10,≤ 100 nM,Cc1ncc(NC(=O)NC2CC(C)(C)C2)cc1-c1cc(OCCO)nc(-c2ccnc(NC(=O)C3CC3)c2)n1 [Example 144]
11,≤ 100 nM,COC(=O)Nc1cc(-c2cc(-c3cc(NC(=O)NCCC4(OC)CC4)c(F)cc3C)ccn2)ccn1 [Example 145]
12,≤ 100 nM,COC(=O)Nc1cc(-c2nccc(-c3cc(NC(=O)NCCC4(OC)CC4)c(F)cc3C)n2)ccn1 [Example 146]
13,≤ 100 nM,COC(=O)Nc1cc(-c2nccc(-c3cc(NC(=O)NCCC(C)(C)F)c(F)cc3C)n2)ccn1 [Example 147]
14,≤ 100 nM,COC[C@H]1CCN(C(=O)Nc2cc(-c3cc(-c4ccnc(NC(=O)OC)c4)cnn3)c(C)cc2F)C1 [Example 148]
15,≤ 100 nM,COC[C@@H]1CCN(C(=O)Nc2cc(-c3cc(-c4ccnc(NC(=O)OC)c4)cnn3)c(C)cc2F)C1 [Example 149]
16,≤ 100 nM,COC(=O)Nc1cc(-c2cnnc(-c3cc(NC(=O)N4CCC(CC(F)(F)F)C4)c(F)cc3C)c2)ccn1 (stereo not shown) [Example 150]

# System: A375 cells
# Test: A375 cell proliferation assay (1), resazurin, 96-well
# Format: cell-based
# Conditions: Homo sapiens, A-375, inhibition of cell proliferation
# Method in brief: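 Viability was read by resazurin fluorescence at 540 nm excitation and 600 nm emission, using a 440 μM solution added for 5–6 h at the end of culture. IC50 came from the curve fit.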
row,IC50,SMILES
1,1000 to 10000 nM,COC(=O)Nc1cc(-c2nccc(-c3cc(NC(=O)NCCC4(C)CC4)cnc3C)n2)ccn1 [Example 135]
2,1000 to 10000 nM,Cc1ncc(NC(=O)NCCC(C)(C)F)cc1-c1ccnc(-c2ccnc(NC(=O)C3CC3)c2)n1 [Example 136]
3,1000 to 10000 nM,COC1(CCNC(=O)Nc2cnc(C)c(-c3ccnc(-c4ccnc(NC(=O)C5CC5)c4)n3)c2)CC1 [Example 137]
4,1000 to 10000 nM,COC(=O)Nc1cc(-c2cccc(-c3cc(NC(=O)NCCC4(OC)CC4)cnc3C)c2)ncn1 [Example 138]
5,1000 to 10000 nM,Cc1cc(F)c(NC(=O)NCCC(C)(C)F)cc1-c1cc(-c2ccnc(NC(=O)C3CC3)c2)cnn1 [Example 139]
6,1000 to 10000 nM,COC(=O)Nc1cc(-c2cnnc(-c3cc(NC(=O)NCCC(C)(C)OC)c(F)cc3C)c2)ccn1 [Example 140]
7,1000 to 10000 nM,COC(=O)Nc1cc(-c2cnnc(-c3cc(NC(=O)NCCC(C)(C)F)c(F)cc3C)c2)ccn1 [Example 141]
8,1000 to 10000 nM,COC(C)(C)CCNC(=O)Nc1cc(-c2cc(-c3ccnc(NC(=O)C4CC4)c3)cnn2)c(C)cc1F [Example 142]
9,1000 to 10000 nM,COC(=O)Nc1cc(-c2nccc(-c3cc(NC(=O)NCCC4(OC)CC4)cnc3C)n2)ccn1 [Example 143]
10,500 to 1000 nM,Cc1ncc(NC(=O)NC2CC(C)(C)C2)cc1-c1cc(OCCO)nc(-c2ccnc(NC(=O)C3CC3)c2)n1 [Example 144]
11,1000 to 10000 nM,COC(=O)Nc1cc(-c2cc(-c3cc(NC(=O)NCCC4(OC)CC4)c(F)cc3C)ccn2)ccn1 [Example 145]
12,1000 to 10000 nM,COC(=O)Nc1cc(-c2nccc(-c3cc(NC(=O)NCCC4(OC)CC4)c(F)cc3C)n2)ccn1 [Example 146]
13,1000 to 10000 nM,COC(=O)Nc1cc(-c2nccc(-c3cc(NC(=O)NCCC(C)(C)F)c(F)cc3C)n2)ccn1 [Example 147]
14,1000 to 10000 nM,COC[C@H]1CCN(C(=O)Nc2cc(-c3cc(-c4ccnc(NC(=O)OC)c4)cnn3)c(C)cc2F)C1 [Example 148]
15,1000 to 10000 nM,COC[C@@H]1CCN(C(=O)Nc2cc(-c3cc(-c4ccnc(NC(=O)OC)c4)cnn3)c(C)cc2F)C1 [Example 149]
16,1000 to 10000 nM,COC(=O)Nc1cc(-c2cnnc(-c3cc(NC(=O)N4CCC(CC(F)(F)F)C4)c(F)cc3C)c2)ccn1 (stereo not shown) [Example 150]

# System: H2405 cells
# Test: H2405 cell proliferation assay (1), resazurin, 96-well
# Format: cell-based
# Conditions: Homo sapiens, NCI-H2405, inhibition of cell proliferation
# Method: H2405 Cell Proliferation Assay (1)
# H2405 cells (catalog #CRL-5944) are obtained from the American Type Culture Collect (ATTC, Manassas, VA). Briefly, cells were grown in RPMI 1640 supplemented with 5% characterized fetal bovine serum (Invitrogen, Carlsbad, CA) and 1% Penicillin/Streptomycin/L-Glutamine at 37° C., 5% CO2, and 95% humidity. Cells are expanded until reaching 70-95% confluency at which point they are subcultured or harvested for assay use. A serial dilution of test compound is dispensed into a 96-well black clear bottom plate in triplicate. Three thousand cells are added per well in 200 μL complete growth medium in the 96-well plate. Plates are incubated for 67-72 hours at 37° C., 5% CO2, and 95% humidity. At the end of the incubation, 40 μL of a 440 μM solution of resazurin (Sigma, St. Louis, MO) in PBS is added to each well of the plate and plates are incubated for an additional 5-6 hours at 37° C., 5% CO2, and 95% humidity. Plates are read on a Synergy2 or equivalent reader (Biotek, Winooski VT) using an excitation of 540 nm and an emission of 600 nm. Data is analyzed using Prism software (GraphPad, San Diego, CA) to calculate IC50 values.
row,IC50,SMILES
1,1000 to 10000 nM,COC(=O)Nc1cc(-c2nccc(-c3cc(NC(=O)NCCC4(C)CC4)cnc3C)n2)ccn1 [Example 135]
2,1000 to 10000 nM,Cc1ncc(NC(=O)NCCC(C)(C)F)cc1-c1ccnc(-c2ccnc(NC(=O)C3CC3)c2)n1 [Example 136]
3,1000 to 10000 nM,COC1(CCNC(=O)Nc2cnc(C)c(-c3ccnc(-c4ccnc(NC(=O)C5CC5)c4)n3)c2)CC1 [Example 137]
4,1000 to 10000 nM,COC(=O)Nc1cc(-c2cccc(-c3cc(NC(=O)NCCC4(OC)CC4)cnc3C)c2)ncn1 [Example 138]
5,500 to 1000 nM,Cc1cc(F)c(NC(=O)NCCC(C)(C)F)cc1-c1cc(-c2ccnc(NC(=O)C3CC3)c2)cnn1 [Example 139]
6,1000 to 10000 nM,COC(=O)Nc1cc(-c2cnnc(-c3cc(NC(=O)NCCC(C)(C)OC)c(F)cc3C)c2)ccn1 [Example 140]
7,1000 to 10000 nM,COC(=O)Nc1cc(-c2cnnc(-c3cc(NC(=O)NCCC(C)(C)F)c(F)cc3C)c2)ccn1 [Example 141]
8,500 to 1000 nM,COC(C)(C)CCNC(=O)Nc1cc(-c2cc(-c3ccnc(NC(=O)C4CC4)c3)cnn2)c(C)cc1F [Example 142]
9,1000 to 10000 nM,COC(=O)Nc1cc(-c2nccc(-c3cc(NC(=O)NCCC4(OC)CC4)cnc3C)n2)ccn1 [Example 143]
10,100 to 500 nM,Cc1ncc(NC(=O)NC2CC(C)(C)C2)cc1-c1cc(OCCO)nc(-c2ccnc(NC(=O)C3CC3)c2)n1 [Example 144]
11,500 to 1000 nM,COC(=O)Nc1cc(-c2cc(-c3cc(NC(=O)NCCC4(OC)CC4)c(F)cc3C)ccn2)ccn1 [Example 145]
12,1000 to 10000 nM,COC(=O)Nc1cc(-c2nccc(-c3cc(NC(=O)NCCC4(OC)CC4)c(F)cc3C)n2)ccn1 [Example 146]
13,1000 to 10000 nM,COC(=O)Nc1cc(-c2nccc(-c3cc(NC(=O)NCCC(C)(C)F)c(F)cc3C)n2)ccn1 [Example 147]
14,1000 to 10000 nM,COC[C@H]1CCN(C(=O)Nc2cc(-c3cc(-c4ccnc(NC(=O)OC)c4)cnn3)c(C)cc2F)C1 [Example 148]
15,1000 to 10000 nM,COC[C@@H]1CCN(C(=O)Nc2cc(-c3cc(-c4ccnc(NC(=O)OC)c4)cnn3)c(C)cc2F)C1 [Example 149]
16,500 to 1000 nM,COC(=O)Nc1cc(-c2cnnc(-c3cc(NC(=O)N4CCC(CC(F)(F)F)C4)c(F)cc3C)c2)ccn1 (stereo not shown) [Example 150]
